This note sets out measurements from article PMC9297786 (Molecular Oncology, 2022).

In the first assay the target is T1, ephrin type‐B receptor 4 (EPHB4) (Homo sapiens, UniProt P54760).
T1 construct: EPHB4 kinase (Carna Biosciences)
T1 sequence (P54760 16-987): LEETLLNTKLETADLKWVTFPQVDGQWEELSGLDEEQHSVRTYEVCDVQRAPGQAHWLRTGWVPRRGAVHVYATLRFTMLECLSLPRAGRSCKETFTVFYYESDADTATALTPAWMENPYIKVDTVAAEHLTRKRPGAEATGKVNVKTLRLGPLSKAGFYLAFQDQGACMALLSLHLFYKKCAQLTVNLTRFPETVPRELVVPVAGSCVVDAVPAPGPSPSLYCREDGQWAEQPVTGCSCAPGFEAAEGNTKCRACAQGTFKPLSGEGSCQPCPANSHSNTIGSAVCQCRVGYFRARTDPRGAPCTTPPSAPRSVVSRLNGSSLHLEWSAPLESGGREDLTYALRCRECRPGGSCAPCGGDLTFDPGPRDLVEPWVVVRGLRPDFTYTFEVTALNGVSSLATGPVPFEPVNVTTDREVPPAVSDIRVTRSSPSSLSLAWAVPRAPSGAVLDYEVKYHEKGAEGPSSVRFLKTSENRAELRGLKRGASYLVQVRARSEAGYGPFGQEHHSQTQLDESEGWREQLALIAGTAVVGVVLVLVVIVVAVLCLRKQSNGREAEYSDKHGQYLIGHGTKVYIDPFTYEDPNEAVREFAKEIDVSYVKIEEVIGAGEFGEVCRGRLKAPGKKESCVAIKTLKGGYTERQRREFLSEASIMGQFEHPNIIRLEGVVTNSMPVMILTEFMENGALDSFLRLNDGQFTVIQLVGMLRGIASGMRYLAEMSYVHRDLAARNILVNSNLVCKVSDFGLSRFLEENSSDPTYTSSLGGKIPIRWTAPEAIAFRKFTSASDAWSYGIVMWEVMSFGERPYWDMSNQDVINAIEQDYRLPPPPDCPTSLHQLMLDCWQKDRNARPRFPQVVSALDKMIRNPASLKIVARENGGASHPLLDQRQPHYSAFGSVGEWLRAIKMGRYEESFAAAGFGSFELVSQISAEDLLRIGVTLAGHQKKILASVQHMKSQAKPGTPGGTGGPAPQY
In words: Kinase‐Glo Plus luminescence kinase assay; SPR binding also measured. Type of assay: biochemical.
Conditions: not given
An excerpt: Kinase‐Glo Plus luminescence kinase assay; SPR binding also measured on ephrin type‐B receptor 4 (EPHB4) | […]
`Cc1ccc(C(=O)Nc2cccc(C(F)(F)F)c2)cc1Nc1nc(-c2cccnc2)nc2c1cnn2C` [NVP‐BHG712]: the IC50 (as a rule, the midpoint of a concentration-inhibition curve) was found to be 349 nM.

In a further assay the test system is K562. Put plainly: cells. The arrangement: MTT cell growth inhibition assay, absorbance at 490 nm. To be noted: Homo sapiens, K562, 48 h, read-out: Inhibition rate (%, 10 μM). Here is the method: Exponential‐phase cells were seeded into 96‐well plates at a density of 2 × 10^4 cells per well in complete medium. After 24 h, cells were treated with drugs at indicated concentrations and incubated for 48 h. Fresh medium containing 20 μL MTT solution (5 mg·mL^−1) was then added to each well. Then plates were incubated for another 4 h at 37 °C. After removing the medium, 150 μL DMSO was added to each well. The absorbance was recorded at 490 nm in the microplate reader and the inhibition ratio (I%) was calculated. The cell growth assay was conducted as described previously. K562 cells were cultured in IMDM containing 10% fetal bovine serum, 100 U·mL^−1 penicillin and 100 U·mL^−1 streptomycin. […] MEG‐01 cells were cultured in DMEM containing 10% fetal bovine serum, 100 U·mL^−1 penicillin and 100 U·mL^−1 streptomycin. […] Cells were grown at 37 °C in a humidified atmosphere with 5% CO2. […] To identify an EPHB4‐specific inhibitor with a potential of rapid translation into clinic, a pool of clinically approved TKIs and compounds was screened in this study (Fig. S2 and Table S4).
Regarding `O=C(/C=C/c1ccc(O)c(O)c1/C=C/c1ccc(O)c(O)c1)O[C@H](Cc1ccc(O)c(O)c1)C(=O)O` [salvianolic acid A], the inhibition (in general, the relative decrease from the control value, in per cent) at 10 µM was -32.3%.

Consider `COC(=O)C[C@](O)(CCCC(C)(C)O)C(=O)O[C@@H]1C(OC)=C[C@]23CCCN2CCc2cc4c(cc2[C@H]13)OCO4` [homoharringtonine], for which the inhibition at 10 µM was determined as 68.7%.

Consider `Cc1ccnc2c1NC(=O)c1cccnc1N2C1CC1` [nevirapine], for which the inhibition at 10 µM was -47%.

As to `COC(=O)C1=C(C)NC(C)=C(C(=O)OC)C1c1ccccc1[N+](=O)[O-]` [nifedipine], the inhibition at 10 µM was 6.88%.

Consider `CC(NC(C)(C)C)C(=O)c1cccc(Cl)c1` (centres unmarked) [bupropion], for which the inhibition at 10 µM is -48.5%.

Turning to `CC(Cc1ccc(O)cc1)NCC(O)c1cc(O)cc(O)c1` (centres unmarked) [fenoterol], the inhibition at 10 µM is -62%.

For `C[C@@H]1C(=O)O[C@H](C)[C@H]1C[C@@H](O)[C@](C)(O)[C@H]1CC[C@@]2(O)C3=CC(=O)[C@@H]4C[C@@H](O)[C@@H](O)C[C@]4(C)[C@H]3CC[C@]12C` [cyasterone], the inhibition at 10 µM was -50.6%.

On to `CNC(=O)c1cc(Oc2ccc(NC(=O)Nc3ccc(Cl)c(C(F)(F)F)c3)c(F)c2)ccn1` [regorafenib], for which the inhibition at 10 µM amounted to 8.49%.

For `C[C@H]1COC2=C1C(=O)C(=O)c1c2ccc2c1CCCC2(C)C` [cryptotanshinone], the inhibition at 10 µM is -72.9%.

As for `COc1cc2nc(N3CCN(C(=O)C4COc5ccccc5O4)CC3)nc(N)c2cc1OC` (centres unmarked) [doxazosin], the inhibition at 10 µM was -84.5%.

Turning to `CN(C)C(=O)Oc1cc(OC(=O)N(C)C)cc(C(O)CNC(C)(C)C)c1` (centres unmarked) [bambuterol], the inhibition at 10 µM is -43.1%.

As to `CC(=O)Oc1ccc2c3c1O[C@H]1[C@@H](OC(C)=O)C=C[C@H]4[C@@H](C2)N(C)CC[C@@]341` [heroin], the inhibition at 10 µM is -30.2%.

With `COc1ccc2c(c1OC)CN1CCc3cc4c(cc3C1=C2)OCO4` [dihydroberberine], the inhibition at 10 µM came to 30.6%.

Turning to `CCOC(=O)C1=C(COCCN)NC(C)=C(C(=O)OC)C1c1ccccc1Cl` (centres unmarked) [amlodipine], the inhibition at 10 µM is -59.8%.

`CCOc1ccccc1OCCN[C@H](C)Cc1ccc(OC)c(S(N)(=O)=O)c1` [tamsulosin]: the inhibition at 10 µM is -35.2%.

Regarding `NC12CC3CC(CC(C3)C1)C2` [amantadine], the inhibition at 10 µM is -58.8%.

In the case of `COc1cc2c(Nc3ccc(Br)cc3F)ncnc2cc1OCC1CCN(C)CC1` [vandetanib, N‐(4‐bromo‐2‐fluorophenyl)‐6‐methoxy‐7‐[(1‐methylpiperidin‐4‐yl)methoxy]quinazolin‐4‐amine], the inhibition at 10 µM was found to be 99.7%.

Consider `C[C@@H]1CC[C@H]2[C@@H](C)C(=O)O[C@@H]3O[C@@]4(C)CC[C@@H]1[C@]32OO4` [artemisinin], for which the inhibition at 10 µM is -161%.

With `O=c1c(O)c(-c2ccc(O)c(O)c2)oc2cc(O)cc(O)c12` [quercetin], the inhibition at 10 µM is -58.4%.

Regarding `CS(=O)(=O)CCNCc1ccc(-c2ccc3ncnc(Nc4ccc(OCc5cccc(F)c5)c(Cl)c4)c3c2)o1` [lapatinib], the inhibition at 10 µM stood at 98.8%.

On to `COc1c2occc2cc2ccc(=O)oc12` [xanthotoxin], for which the inhibition at 10 µM is -42.2%.

Regarding `CC(C)NCC(O)c1ccc(NS(C)(=O)=O)cc1` (centres unmarked) [sotalol], the inhibition at 10 µM was -52.8%.

For `CCCCc1nc(Cl)c(CO)n1Cc1ccc(-c2ccccc2-c2nnn[nH]2)cc1` [losartan], the inhibition at 10 µM is -72.9%.

For the compound `CN(C)CCOC(c1ccccc1)c1ccccc1` [diphenhydramine], the inhibition at 10 µM was -37.9%.

`CC(=O)Nc1ccc(OCC(O)CNC(C)C)cc1` (centres unmarked) [practolol]: the inhibition at 10 µM was -62.1%.

In the case of `COc1ccc2cc3[n+](cc2c1OC)CCc1cc2c(cc1-3)OCO2` [berberine], the inhibition at 10 µM was determined as 49.8%.

Turning to `COc1cc2nccc(Oc3ccc(NC(=O)C4(C(=O)Nc5ccc(F)cc5)CC4)cc3)c2cc1OC` [cabozantinib], the inhibition at 10 µM stood at 90.1%.

The next assay concerns K562. Put plainly: cells. Also on record: MTT cell viability of wild-type K562 beside EPHB4 mutant sublines, 48 h. The conditions noted are these: Homo sapiens, K562, 48 h; read-out: IC50 (uM) K562-WT. As to the method: Exponential‐phase cells were seeded into 96‐well plates at a density of 2 × 10^4 cells per well in complete medium. After 24 h, cells were treated with drugs at indicated concentrations and incubated for 48 h. Fresh medium containing 20 μL MTT solution (5 mg·mL^−1) was then added to each well. Then plates were incubated for another 4 h at 37 °C. After removing the medium, 150 μL DMSO was added to each well. The absorbance was recorded at 490 nm in the microplate reader and the inhibition ratio (I%) was calculated. The cell growth assay was conducted as described previously. […] Similar results were shown for M4 mutants. […] (a) Three‐dimensional structure graph; (b) binding region; (c) plane schematic of interaction between the receptor and ligand. (B) Genomic position of sgRNAs and PAMs for EPHB4 knock‐out line, PAM site was colored in red. (C) The protein expression of EPHB4 in K562, K562‐Crispr‐1 and K562‐Crispr‐2 cells determined by western blot assay. P‐values were generated by one‐way ANOVA using the Tukey test for multiple comparisons. **P < 0.01 versus the K562 group. […] P‐values were generated by one‐way ANOVA using the Tukey test for multiple comparisons. *P < 0.05 versus the K562 group. (E) Five point‐mutation (M1–M5) and their corresponding wild‐type (WT) sequences. The point‐mutations of EPHB4: M1, I14A, G15A; M2, M83A, N85A, G86A; M3, A87Del; M4, S90A, F91A; M5, R93A, L94A. […]
For `COc1cc2c(Nc3ccc(Br)cc3F)ncnc2cc1OCC1CCN(C)CC1` [vandetanib, N‐(4‐bromo‐2‐fluorophenyl)‐6‐methoxy‐7‐[(1‐methylpiperidin‐4‐yl)methoxy]quinazolin‐4‐amine], the IC50 amounted to 2.05 ± 1.08 µM.

A further assay relates to H9 cells. In words: cells. Also on record: MTT cell growth inhibition after 48 h. The conditions noted are these: Homo sapiens, H9, 48 h. As to the method:
(§1) Exponential‐phase cells were seeded into 96‐well plates at a density of 2 × 10^4 cells per well in complete medium. After 24 h, cells were treated with drugs at indicated concentrations and incubated for 48 h. Fresh medium containing 20 μL MTT solution (5 mg·mL^−1) was then added to each well. Then plates were incubated for another 4 h at 37 °C. After removing the medium, 150 μL DMSO was added to each well. The absorbance was recorded at 490 nm in the microplate reader and the inhibition ratio (I%) was calculated. The cell growth assay was conducted as described previously. […] To identify an EPHB4‐specific inhibitor with a potential of rapid translation into clinic, a pool of clinically approved TKIs and compounds was screened in this study (Fig. S2 and Table S4).
Compound `COc1cc2c(Nc3ccc(Br)cc3F)ncnc2cc1OCC1CCN(C)CC1` [vandetanib, N‐(4‐bromo‐2‐fluorophenyl)‐6‐methoxy‐7‐[(1‐methylpiperidin‐4‐yl)methoxy]quinazolin‐4‐amine] displayed an IC50 of 11200 ± 1080 nM.

In a further assay the test system is K562. In words: cells. The conditions noted are these: Homo sapiens, K562, 48 h. The arrangement: MTT cell growth inhibition after 48 h. Here is the method:
as §1
In turn, `COc1cc2c(Nc3ccc(Br)cc3F)ncnc2cc1OCC1CCN(C)CC1` [vandetanib, N‐(4‐bromo‐2‐fluorophenyl)‐6‐methoxy‐7‐[(1‐methylpiperidin‐4‐yl)methoxy]quinazolin‐4‐amine] displayed an IC50 of 2180 ± 1070 nM.

A further assay deals with MEG-01 cells. Put plainly: cells. The arrangement: MTT cell growth inhibition after 48 h. To be noted: Homo sapiens, MEG-01, 48 h. As to the method: as §1
In turn, `COc1cc2c(Nc3ccc(Br)cc3F)ncnc2cc1OCC1CCN(C)CC1` [vandetanib, N‐(4‐bromo‐2‐fluorophenyl)‐6‐methoxy‐7‐[(1‐methylpiperidin‐4‐yl)methoxy]quinazolin‐4‐amine] displayed an IC50 of 1460 ± 1070 nM.
